Like-named read-outs stand apart in the source and are kept apart here.
Tests used:
Test in all cases: Glasshouse assay for herbicidal activity (pre- and post-emergence), percentage phytotoxicity
Format in all cases: in vivo
[1] = system: Alopecurus myosuroides (ALOMY); details: Alopecurus myosuroides
Procedure, shortened: (§1)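 Potted test plants in standard soil received the compound pre-emergence (day 1) or post-emergence (about day 12). Evaluation: visual damage score from 0% (none) to 100% (total), 15 days after application post-emergence, 20 days pre-emergence.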

Lolium perenne (LOLPE) = details: Lolium perenne
Procedure, shortened: as §1

[2] = system: Echinochloa crus-galli (ECHCG); details: Echinochloa crus-galli
Procedure, shortened: as §1

Avena fatua (AVEFA) = details: Avena fatua
Procedure, shortened: as §1

**Q.** Which pest or weed control at 250 g/ha ([1]; post-emergence, 360 h, 250 g/ha, post-emergence, 15 DAA, visual assessment (100%=total damage, 0%=no damage), read-out: Post-emergence herbicidal activity (percentage phytotoxicity) ALOMY POST) does the source give for `COCCOCCCNC(=O)CC1CC(=O)C(c2c(C)cc(C)cc2C)C1=O` (centres unmarked) [Compound B7] here?
**A.** Its pest or weed control at 250 g/ha is 100%.

**Q.** And the pest or weed control at 250 g/ha ([1]; pre-emergence, 480 h, 250 g/ha, pre-emergence, 20 DAA, visual assessment (100%=total damage, 0%=no damage), read-out: Pre-emergence herbicidal activity (percentage phytotoxicity) ALOMY PRE)?
**A.** Its pest or weed control at 250 g/ha is 100%.

**Q.** What about the pest or weed control at 250 g/ha (Lolium perenne (LOLPE); post-emergence, 360 h, 250 g/ha, post-emergence, 15 DAA, visual assessment (100%=total damage, 0%=no damage), read-out: Post-emergence herbicidal activity (percentage phytotoxicity) LOLPE POST) of the same compound?
**A.** Its pest or weed control at 250 g/ha is 80%.

**Q.** And the pest or weed control at 250 g/ha (Lolium perenne (LOLPE); pre-emergence, 480 h, 250 g/ha, pre-emergence, 20 DAA, visual assessment (100%=total damage, 0%=no damage), read-out: Pre-emergence herbicidal activity (percentage phytotoxicity) LOLPE PRE)?
**A.** The pest or weed control at 250 g/ha was 90%.

**Q.** And the pest or weed control at 250 g/ha ([2]; post-emergence, 360 h, 250 g/ha, post-emergence, 15 DAA, visual assessment (100%=total damage, 0%=no damage), read-out: Post-emergence herbicidal activity (percentage phytotoxicity) ECHCG POST)?
**A.** Its pest or weed control at 250 g/ha is 100%.

**Q.** What about the pest or weed control at 250 g/ha ([2]; pre-emergence, 480 h, 250 g/ha, pre-emergence, 20 DAA, visual assessment (100%=total damage, 0%=no damage), read-out: Pre-emergence herbicidal activity (percentage phytotoxicity) ECHCG PRE) of the same compound?
**A.** The pest or weed control at 250 g/ha was 80%.

**Q.** What about the pest or weed control at 250 g/ha (Avena fatua (AVEFA); post-emergence, 360 h, 250 g/ha, post-emergence, 15 DAA, visual assessment (100%=total damage, 0%=no damage), read-out: Post-emergence herbicidal activity (percentage phytotoxicity) AVEFA POST) of the same compound?
**A.** Its pest or weed control at 250 g/ha is 100%.

**Q.** And the pest or weed control at 250 g/ha (Avena fatua (AVEFA); pre-emergence, 480 h, 250 g/ha, pre-emergence, 20 DAA, visual assessment (100%=total damage, 0%=no damage), read-out: Pre-emergence herbicidal activity (percentage phytotoxicity) AVEFA PRE)?
**A.** The pest or weed control at 250 g/ha was 90%.

**Q.** For `CCc1cc(C)cc(C)c1C1C(=O)CC(CC(=O)N2CCOCC2)C1=O` (centres unmarked) [Compound B169], which pest or weed control at 250 g/ha ([1]; post-emergence, 360 h, POST-emergence, rate 250 g/ha, visual score 15 DAA (100%=total damage, 0%=no damage), read-out: Post-emergence herbicidal activity (percentage phytotoxicity) ALOMY POST) is on record?
**A.** The pest or weed control at 250 g/ha was 100%.

**Q.** What about the pest or weed control at 250 g/ha ([1]; pre-emergence, 480 h, PRE-emergence, rate 250 g/ha, visual score 20 DAA (100%=total damage, 0%=no damage), read-out: Pre-emergence herbicidal activity (percentage phytotoxicity) ALOMY PRE) of the same compound?
**A.** Its pest or weed control at 250 g/ha is 100%.

**Q.** What about the pest or weed control at 250 g/ha (Lolium perenne (LOLPE); post-emergence, 360 h, POST-emergence, rate 250 g/ha, visual score 15 DAA (100%=total damage, 0%=no damage), read-out: Post-emergence herbicidal activity (percentage phytotoxicity) LOLPE POST) of the same compound?
**A.** Its pest or weed control at 250 g/ha is 100%.

**Q.** And the pest or weed control at 250 g/ha (Lolium perenne (LOLPE); pre-emergence, 480 h, PRE-emergence, rate 250 g/ha, visual score 20 DAA (100%=total damage, 0%=no damage), read-out: Pre-emergence herbicidal activity (percentage phytotoxicity) LOLPE PRE)?
**A.** Its pest or weed control at 250 g/ha is 100%.

**Q.** What about the pest or weed control at 250 g/ha ([2]; post-emergence, 360 h, POST-emergence, rate 250 g/ha, visual score 15 DAA (100%=total damage, 0%=no damage), read-out: Post-emergence herbicidal activity (percentage phytotoxicity) ECHCG POST) of the same compound?
**A.** Its pest or weed control at 250 g/ha is 100%.

**Q.** And the pest or weed control at 250 g/ha ([2]; pre-emergence, 480 h, PRE-emergence, rate 250 g/ha, visual score 20 DAA (100%=total damage, 0%=no damage), read-out: Pre-emergence herbicidal activity (percentage phytotoxicity) ECHCG PRE)?
**A.** The pest or weed control at 250 g/ha was 100%.

**Q.** What about the pest or weed control at 250 g/ha (Avena fatua (AVEFA); post-emergence, 360 h, POST-emergence, rate 250 g/ha, visual score 15 DAA (100%=total damage, 0%=no damage), read-out: Post-emergence herbicidal activity (percentage phytotoxicity) AVEFA POST) of the same compound?
**A.** The pest or weed control at 250 g/ha was 100%.

**Q.** And the pest or weed control at 250 g/ha (Avena fatua (AVEFA); pre-emergence, 480 h, PRE-emergence, rate 250 g/ha, visual score 20 DAA (100%=total damage, 0%=no damage), read-out: Pre-emergence herbicidal activity (percentage phytotoxicity) AVEFA PRE)?
**A.** Its pest or weed control at 250 g/ha is 100%.

**Q.** `Cc1cc(-c2ncc(Cl)cc2F)cc(C)c1C1C(=O)CC(CC(=O)NCc2cnc(Cl)s2)C1=O` (centres unmarked) [Compound A128] was tested. Which pest or weed control at 250 g/ha ([1]; post-emergence, 360 h, Rate 250 g/ha, post-emergence, assessed visually 15 DAA, 100%=total damage, 0%=no damage, read-out: Post-emergence herbicidal activity (percentage phytotoxicity) ALOMY POST) did it give?
**A.** Its pest or weed control at 250 g/ha is 100%.

**Q.** What about the pest or weed control at 250 g/ha ([1]; pre-emergence, 480 h, Rate 250 g/ha, pre-emergence, assessed visually 20 DAA, 100%=total damage, 0%=no damage, read-out: Pre-emergence herbicidal activity (percentage phytotoxicity) ALOMY PRE) of the same compound?
**A.** The pest or weed control at 250 g/ha was 80%.

**Q.** And the pest or weed control at 250 g/ha (Lolium perenne (LOLPE); post-emergence, 360 h, Rate 250 g/ha, post-emergence, assessed visually 15 DAA, 100%=total damage, 0%=no damage, read-out: Post-emergence herbicidal activity (percentage phytotoxicity) LOLPE POST)?
**A.** The pest or weed control at 250 g/ha was 100%.

**Q.** And the pest or weed control at 250 g/ha (Lolium perenne (LOLPE); pre-emergence, 480 h, Rate 250 g/ha, pre-emergence, assessed visually 20 DAA, 100%=total damage, 0%=no damage, read-out: Pre-emergence herbicidal activity (percentage phytotoxicity) LOLPE PRE)?
**A.** The pest or weed control at 250 g/ha was 90%.

**Q.** And the pest or weed control at 250 g/ha ([2]; post-emergence, 360 h, Rate 250 g/ha, post-emergence, assessed visually 15 DAA, 100%=total damage, 0%=no damage, read-out: Post-emergence herbicidal activity (percentage phytotoxicity) ECHCG POST)?
**A.** The pest or weed control at 250 g/ha was 100%.

**Q.** And the pest or weed control at 250 g/ha ([2]; pre-emergence, 480 h, Rate 250 g/ha, pre-emergence, assessed visually 20 DAA, 100%=total damage, 0%=no damage, read-out: Pre-emergence herbicidal activity (percentage phytotoxicity) ECHCG PRE)?
**A.** Its pest or weed control at 250 g/ha is 100%.

**Q.** And the pest or weed control at 250 g/ha (Avena fatua (AVEFA); post-emergence, 360 h, Rate 250 g/ha, post-emergence, assessed visually 15 DAA, 100%=total damage, 0%=no damage, read-out: Post-emergence herbicidal activity (percentage phytotoxicity) AVEFA POST)?
**A.** The pest or weed control at 250 g/ha was 100%.

**Q.** What about the pest or weed control at 250 g/ha (Avena fatua (AVEFA); pre-emergence, 480 h, Rate 250 g/ha, pre-emergence, assessed visually 20 DAA, 100%=total damage, 0%=no damage, read-out: Pre-emergence herbicidal activity (percentage phytotoxicity) AVEFA PRE) of the same compound?
**A.** The pest or weed control at 250 g/ha was 80%.

**Q.** What does the source list for `Cc1cc(-c2ccc(Cl)cn2)cc(C)c1C1C(=O)CC(CC(=O)NC(C)C)C1=O` (centres unmarked) [Compound B360]?
**A.** pest or weed control at 250 g/ha ([1]; post-emergence, 360 h, Rate 250 g/ha, post-emergence, visual assessment 15 DAA, 100%=total damage, 0%=no damage, read-out: Post-emergence herbicidal activity (percentage phytotoxicity) ALOMY POST): 100%; pest or weed control at 250 g/ha ([1]; pre-emergence, 480 h, Rate 250 g/ha, pre-emergence, visual assessment 20 DAA, 100%=total damage, 0%=no damage, read-out: Pre-emergence herbicidal activity (percentage phytotoxicity) ALOMY PRE): 100%; pest or weed control at 250 g/ha (Lolium perenne (LOLPE); post-emergence, 360 h, Rate 250 g/ha, post-emergence, visual assessment 15 DAA, 100%=total damage, 0%=no damage, read-out: Post-emergence herbicidal activity (percentage phytotoxicity) LOLPE POST): 100%; pest or weed control at 250 g/ha (Lolium perenne (LOLPE); pre-emergence, 480 h, Rate 250 g/ha, pre-emergence, visual assessment 20 DAA, 100%=total damage, 0%=no damage, read-out: Pre-emergence herbicidal activity (percentage phytotoxicity) LOLPE PRE): 100%; pest or weed control at 250 g/ha ([2]; post-emergence, 360 h, Rate 250 g/ha, post-emergence, visual assessment 15 DAA, 100%=total damage, 0%=no damage, read-out: Post-emergence herbicidal activity (percentage phytotoxicity) ECHCG POST): 100%; pest or weed control at 250 g/ha ([2]; pre-emergence, 480 h, Rate 250 g/ha, pre-emergence, visual assessment 20 DAA, 100%=total damage, 0%=no damage, read-out: Pre-emergence herbicidal activity (percentage phytotoxicity) ECHCG PRE): 100%; pest or weed control at 250 g/ha (Avena fatua (AVEFA); post-emergence, 360 h, Rate 250 g/ha, post-emergence, visual assessment 15 DAA, 100%=total damage, 0%=no damage, read-out: Post-emergence herbicidal activity (percentage phytotoxicity) AVEFA POST): 100%; pest or weed control at 250 g/ha (Avena fatua (AVEFA); pre-emergence, 480 h, Rate 250 g/ha, pre-emergence, visual assessment 20 DAA, 100%=total damage, 0%=no damage, read-out: Pre-emergence herbicidal activity (percentage phytotoxicity) AVEFA PRE): 100%
